Patent publication US9526720B2, “Modulators of hepatic lipoprotein metabolism” (The Broad Institute, Inc., priority 2012, dated 2016)
Like-named read-outs stand apart in the source and are kept apart here.

Assays:
[1] = system: ApoB; test: ELISA of secreted ApoB in HepG2 cells; format: cell-based, human; conditions: HepG2 cells
Experimental: (§1) Additional secondary assays were performed in HepG2 cells to further characterize the cellular response to treatment with select confirmed TRIB1 inducer hits. The results of the ELISA, CTG, and qPCR secondary assays are summarized in Table B. For all secondary assays, the experiments were performed using powders of freshly purified compounds.
(§2) To further characterize the relationship of TRIB1 induction and PCSK9 reduction, ELISAs were performed to measure the levels of secreted ApoB, PCSK9, and LDLR. […] As predicted treatment with TRIB1 inducer hits caused a decrease in ApoB levels detected by ELISA. In parallel effort, 3200 BIOA and NATP compounds were screened for PCSK9 expression inhibitors. Hits were defined as inducing greater than 3-fold downregulation of PCSK9, and 3.8% of the screened compounds were confirmed as hits. […] In further experiments, a strong correlation was confirmed between TRIB1 induction and PCSK9 repression in DOS Collection hits. ELISA analysis confirmed that treatment with TRIB1 inducers reduced the PCSK9 protein levels. LDLR protein levels were also analyzed by ELISA to determine whether compounds that modulate both TRIB1 and PCSK9 had any effect on LDLR protein levels.

[2] = system: LDLR; test: ELISA of LDLR protein in HepG2 cells; format: cell-based, human; conditions: for ELISA LDLR: HepG2 cells
Experimental: as §1, §2

[3] = system: PCSK9; test: ELISA of secreted PCSK9 protein in HepG2 cells; format: cell-based, human; conditions: HepG2 cells
Experimental: as §1, §2

[4] = system: HepG2 cells; test: Cell Titer Glo (CTG) cell viability assay; format: cell-based, human; set-up: key: A: Increase <2-fold; B: Increase >2-fold; X: Decrease <2-fold; Y: Decrease >2-fold; No significant change; conditions: cell viability (ATP)
Experimental: Cell viability was determined using a Cell Titer Glo (CTG) assay ([…]) after treatment with TRIB1 inducer compounds. In this assay, the number of viable cells in culture is based on quantitation of ATP, which indicates metabolically active cells. Addition of the reagent results in cell lysis and generation of a luminescent signal proportional to the amount of ATP present, which is directly proportional to the number of viable, metabolically active cells present in culture. Most TRIB1 inducer compounds had no significant effect on cell viability.

[5] = system: TRIB1; test: qPCR TRIB1 expression in HepG2 cells; format: cell-based, human; set-up: key to qPCR TRIB1: A: Increase <2-fold; B: Increase >2-fold; X: Decrease <2-fold; Y: Decrease >2-fold; No significant change; conditions: for fold induction at 10 µM: Homo sapiens, 20 h
Experimental: (§3) In the primary screen, HepG2 cells were plated in 384-well plates at 2000 cells per well and incubated for 20 hours with each compound in duplicate at 10 microM concentration. Then RNA was isolated, reverse-transcribed to cDNA, and stored at −80° C. Expression levels of TRIB1 and other target genes, such as SORT1 and PCSK9, were determined by quantitative PCR. Relative gene expression level was normalized to expression of the housekeeping gene, GAPDH. A “hit” was defined as those compounds that caused a greater than 2-fold increase in relative target gene expression when normalized to GAPDH expression, compared to DMSO-treated control. Using these criteria, 130 hits were identified for TRIB1 (0.8% hit rate).
(§4) Further analysis of the expression levels of various proteins in the cholesterol and triglyceride biosynthetic pathways in response to TRIB1 inducer treatment was performed. In particular, transcript levels of additional lipoprotein metabolism pathway proteins SCAP, SREBF1, SREBF2, HMGCR, HMGCS, SCD1, FASN and MTTP were assessed by qPCR, along with TRIB1, LDLR, and PCSK9. The gene expression profile for the same subset of genes was also assessed after treatment with the statin atorvastatin (Lipitor), commonly used in therapy for hypercholesterolemia and other cardiovascular diseases.
(§5) The kinetics of the modulation of TRIB1, LDLR, PCSK9 and MTTP gene expression after treatment by select TRIB1 inducer compounds was monitored by qPCR analysis (FIG. 4). RNA was extracted from cells at various timepoints over 28 hours of treatment (0, 2, 4, 6, 8, 24, 28 hours). Specifically, compounds 12a and 14a induced transcriptional responses over time similar to those produced by berberine, a plant alkaloid used in Chinese medicine. […] Both compound 12a and compound 14a induce TRIB1 and LDLR and repress PCSK9 and MTTP expression with similar kinetics and similar fold change as berberine Importantly, both compounds induce these gene expression changes at much lower concentrations than berberine. […] This increased potency indicates the potential therapeutic efficacy of such compounds for treatment of cardiovascular diseases, particularly hypercholesterolemia and related conditions.

[6] = system: SCAP; test: qPCR SCAP transcript level in HepG2 cells; format: cell-based, human; set-up: key: A: Increase <2-fold; B: Increase >2-fold; X: Decrease <2-fold; Y: Decrease >2-fold; No significant change
Experimental: as §3, §4

[7] = system: SREBF1; test: qPCR SREBF1 transcript level in HepG2 cells; format: cell-based, human; set-up: key: A: Increase <2-fold; B: Increase >2-fold; X: Decrease <2-fold; Y: Decrease >2-fold; No significant change
Experimental: as §3, §4

[8] = system: SREBF2; test: qPCR SREBF2 transcript level in HepG2 cells; format: cell-based, human; set-up: key: A: Increase <2-fold; B: Increase >2-fold; X: Decrease <2-fold; Y: Decrease >2-fold; No significant change
Experimental: as §3, §4

[9] = system: PCSK9; test: qPCR PCSK9 expression in HepG2 cells; format: cell-based, human; conditions: for fold induction at 10 µM: Homo sapiens, 20 h, HepG2 cells
Experimental: as §3, §4, §5

[10] = system: LDLR; test: qPCR LDLR expression in HepG2 cells; format: cell-based, human; conditions: for qPCR LDLR: HepG2 cells
Experimental: as §3, §4, §5

[11] = system: HMGCR; test: qPCR HMGCR transcript level in HepG2 cells; format: cell-based, human; set-up: key: A: Increase <2-fold; B: Increase >2-fold; X: Decrease <2-fold; Y: Decrease >2-fold; No significant change
Experimental: as §3, §4

[12] = system: HMGCS; test: qPCR HMGCS transcript level in HepG2 cells; format: cell-based; conditions: Homo sapiens, 20 h
Experimental: as §3, §4

[13] = system: FASN; test: qPCR FASN transcript level in HepG2 cells; format: cell-based; conditions: Homo sapiens, 20 h
Experimental: as §3, §4

[14] = system: SCD1; test: qPCR SCD1 transcript level in HepG2 cells; format: cell-based; conditions: Homo sapiens, 20 h
Experimental: as §3, §4

[15] = system: TRIB1; test: qPCR TRIB1 expression in HepG2 cells; format: cell-based; conditions: Homo sapiens
[16] = HepG2, induction of TRIB1 and LDLR transcript levels, read-out: half maximal effective concentration (EC50)

| EC50 [15, 16] [µM] | SMILES | ELISA ApoB [1] | ELISA LDLR [2] | ELISA PCSK9 [3] | CTG [4] | qPCR SCAP [6] | qPCR SREBF1 [7] | qPCR SREBF2 [8] | fold induction at 10 µM [9] | qPCR LDLR [10] | qPCR HMGCR [11] | fold induction at 10 µM [12] | fold induction at 10 µM [13] | fold induction at 10 µM [14] | fold induction at 10 µM ([5]; HepG2 cells) | other results |
| --- | --- | --- | --- | --- | --- | --- | --- | --- | --- | --- | --- | --- | --- | --- | --- | --- |
|  | CC(C)c1c(C(=O)Nc2ccccc2)c(-c2ccccc2)c(-c2ccc(F)cc2)n1CC[C@@H](O)C[C@@H](O)CC(=O)O [Atorvastatin, atorvastatin, reference compound] | X (Decrease <2-fold) | A (Increase <2-fold) | A (Increase <2-fold) | N | N | N | A (Increase <2-fold) | > 2 | B (Increase >2-fold) | N | < 2 | < 2 | < 2 |  | TRIB1 expression (in words) ([5]; HepG2, qPCR): did not significantly affect; qPCR TRIB1 ([5]; HepG2 cells): N; increase of PCSK9 mRNA levels ([9]; time course, HepG2): ~2 fold; increase of LDLR mRNA levels ([10]; time course, HepG2): ~2 fold |
|  | Cc1cc(C(=O)Nc2ccc3c(c2)C(=O)N(C)[C@H]2CC[C@@H](CC(=O)NCc4ccc(-c5ccccc5)cc4)O[C@@H]2CO3)no1 [Compound 3a] | Y (Decrease >2-fold) | B (Increase >2-fold) | X (Decrease <2-fold) | N | N | N | B (Increase >2-fold) | > 2 | B (Increase >2-fold) | Y (Decrease >2-fold) | > 2 | > 2 | > 2 | > 2 |  |
|  | CN1C(=O)c2cc(NC(=O)Cc3cccs3)ccc2OC[C@@H]2O[C@H](CC(=O)NCc3ccc(-c4ccccc4)cc3)CC[C@@H]21 [Compound 4a] | Y (Decrease >2-fold) | A (Increase <2-fold) | X (Decrease <2-fold) | N | X (Decrease <2-fold) | X (Decrease <2-fold) | X (Decrease <2-fold) | > 2 | A (Increase <2-fold) | X (Decrease <2-fold) | > 2 | > 2 | < 2 | > 2 |  |
|  | O=C(C[C@@H]1CC[C@H]2[C@@H](COC[C@H](O)CN2Cc2ccc(Oc3ccccc3)cc2)O1)N1CCc2ccccc2C1 [Compound 6a] | Y (Decrease >2-fold) | A (Increase <2-fold) | Y (Decrease >2-fold) | N | N | N | N | > 2 | A (Increase <2-fold) | N | > 2 | > 2 | > 2 | > 2 |  |
| < 1 | CN1C(=O)c2cc(NC(=O)Nc3ccccc3F)ccc2OC[C@@H]2O[C@H](CC(=O)NCc3ccc(-c4ccccc4)cc3)CC[C@@H]21 [Compound 15a] |  |  |  |  |  |  |  |  |  |  |  |  |  |  |  |
| < 1 | COCC(=O)Nc1ccc2c(c1)C(=O)N(C)[C@H]1CC[C@@H](CC(=O)NC3Cc4ccccc4C3)O[C@H]1CO2 [Compound 16a] |  |  |  |  |  |  |  |  |  |  |  |  |  |  |  |
| < 1 | CN(C)C(=O)c1ccc(-c2ccc([C@H]3[C@@H](C#N)N(C(=O)C4CCCCC4)[C@H]3CO)cc2)cc1 [Compound 17a] |  |  |  |  |  |  |  |  |  |  |  |  |  |  | EC50 ([2]; Homo sapiens, HepG2, 24 h, read-out: ELISA 24 Hr (EC50 uM) LDLR increase): 1.1 to 2 µM; EC50 ([10]; Homo sapiens, HepG2, 6 h, read-out: qPCR 6Hr (EC50 uM) LDLR up-regulation): 0.51 to 1 µM; EC50 ([15]; HepG2, 6 h, read-out: qPCR 6Hr (EC50 uM) TRIB1 up-regulation): 0.51 to 1 µM |
